# ChEMBL document CHEMBL3879908, “Pyrrolidinone carboxamide derivatives” (2014)
# pIC50: −log10 of the molar value.
# Molecular target: T1, Chemerin-like receptor 1 (Homo sapiens, UniProt Q99788)
# T1 sequence (Q99788 whole entry): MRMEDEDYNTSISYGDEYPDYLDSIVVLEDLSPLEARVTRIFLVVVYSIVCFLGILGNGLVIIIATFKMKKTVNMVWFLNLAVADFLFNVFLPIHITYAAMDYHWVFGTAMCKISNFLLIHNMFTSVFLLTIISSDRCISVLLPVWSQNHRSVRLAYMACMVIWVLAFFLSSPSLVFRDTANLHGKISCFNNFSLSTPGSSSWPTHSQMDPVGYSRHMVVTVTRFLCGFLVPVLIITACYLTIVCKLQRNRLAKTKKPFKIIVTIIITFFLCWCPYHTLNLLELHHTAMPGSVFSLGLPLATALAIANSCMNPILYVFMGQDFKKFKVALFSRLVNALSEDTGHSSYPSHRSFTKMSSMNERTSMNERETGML
# Assay: Displacement of [125I]-chemerin from ChemR23 (unknown origin) transfected in mouse BaF3 cells after 3 hrs by scintillation counting method
# Type: cell-based
row,Compound,pIC50
1,COc1ccccc1N1CC(C(=O)Nc2cc(C3CC3)cc(C(F)(F)F)c2)(C(C)C)CC1=O (centres undefined),5.22 to 6.52
2,CC[C@@]1(C(=O)Nc2cc(CN3CCCC3)cc(C(F)(F)F)c2)CN(c2c(C)cccc2C)C(=O)[C@H]1C,5.22 to 6.52
3,COCCOc1cc(NC(=O)C2(C(C)C)CC(=O)N(c3c(C)cccc3Br)C2)cc(C(F)(F)F)c1 (centres undefined),5.22 to 6.52
4,COc1cccc(C)c1N1CC(C(=O)Nc2cc(C(F)(F)F)cc(C(F)(F)F)c2)(C(C)C)CC1=O (centres undefined),5.22 to 6.52
5,CC(C)C1(C(=O)Nc2cc(C(F)(F)F)cc(C(F)(F)F)c2)CC(=O)N(c2ccccc2CO)C1 (centres undefined),5.22 to 6.52
6,CCc1cccc(C)c1N1CC(C(=O)Nc2ccc(C(F)(F)F)cc2)CC1=O (centres undefined),5.22 to 6.52
7,CCc1cccc(C)c1N1CC(C(=O)Nc2ccc(OC)c(C(F)(F)F)c2)CC1=O (centres undefined),5.22 to 6.52
8,CCc1cccc(C)c1N1CC(C(=O)Nc2ccc(C)c(C(F)(F)F)c2)CC1=O (centres undefined),5.22 to 6.52
9,Cc1cccc(C)c1N1CC(C(=O)Nc2cc(F)cc(F)c2)CC1=O (centres undefined),5.22 to 6.52
10,Cc1cccc(C)c1N1C[C@@](CN2CCCC2)(C(=O)Nc2cc(C(F)(F)F)cc(C(F)(F)F)c2)[C@H](C)C1=O,5.22 to 6.52
11,Cc1cccc(C)c1N1CC(C(=O)Nc2cc(Cl)cc(C#N)c2)CC1=O (centres undefined),5.22 to 6.52
12,Cc1cccc(C)c1N1CC(C(=O)Nc2cccc(Cl)c2)CC1=O (centres undefined),5.22 to 6.52
13,CCc1cccc(C)c1N1CC(C(=O)Nc2cccc(Cl)c2)CC1=O (centres undefined),5.22 to 6.52
14,Cc1cccc(Br)c1N1CC(C(=O)Nc2cccc(C(F)(F)F)c2)CC1=O (centres undefined),5.22 to 6.52
15,Cc1cccc(C)c1N1CC(C(=O)Nc2cccc(C(F)(F)F)c2)CC1=O (centres undefined),5.22 to 6.52
16,CCN(CC)C[C@@]1(C(=O)Nc2cc(C(F)(F)F)cc(C(F)(F)F)c2)CN(c2c(C)cccc2C)C(=O)[C@H]1C,5.22 to 6.52
17,CCc1cccc(C)c1N1CC(C(=O)Nc2ccc(F)c(C(F)(F)F)c2)CC1=O (centres undefined),5.22 to 6.52
18,Cc1cccc(C)c1N1CC(C(=O)Nc2cc(C(F)(F)F)cc(C(F)(F)F)c2)(C2CCNC2)CC1=O (centres undefined),5.22 to 6.52
19,CCc1cccc(C)c1N1CC(C(=O)Nc2cccc(C(F)(F)F)c2)CC1=O (centres undefined),5.22 to 6.52
20,CCc1cccc(NC(=O)C2CC(=O)N(c3c(C)cccc3C)C2)c1 (centres undefined),5.22 to 6.52
21,Cc1cccc(F)c1N1CC(C(=O)Nc2cccc(Cl)c2)CC1=O (centres undefined),5.22 to 6.52
22,CCOCc1cccc(C)c1N1CC(C(=O)Nc2cc(C(F)(F)F)cc(C(F)(F)F)c2)(C(C)C)CC1=O (centres undefined),5.22 to 6.52
23,Cc1cccc(C)c1N1C[C@@](CN2CCOCC2)(C(=O)Nc2cc(C(F)(F)F)cc(C(F)(F)F)c2)[C@H](C)C1=O,5.22 to 6.52
24,Cc1cccc(C)c1N1CC(C(=O)Nc2ccc(Cl)c(Cl)c2)CC1=O (centres undefined),5.22 to 6.52
25,Cc1cccc(CCN2CCOCC2)c1N1CC(C(=O)Nc2cc(C(F)(F)F)cc(C(F)(F)F)c2)(C(C)C)CC1=O (centres undefined),5.22 to 6.52
26,Cc1ccccc1N1CC(C(=O)Nc2cccc(C(F)(F)F)c2)CC1=O (centres undefined),5.22 to 6.52
27,Cc1cccc(CCO)c1N1CC(C(=O)Nc2cc(C(F)(F)F)cc(C(F)(F)F)c2)(C(C)C)CC1=O (centres undefined),5.22 to 6.52
28,Cc1cccc(C)c1N1CC(C(=O)Nc2ccc(Cl)cc2Cl)CC1=O (centres undefined),5.22 to 6.52

# Further lines, results first:
row,pIC50,Compound
1,≥ 7.52,C=C(C)CC1(C(=O)Nc2cc(C(F)(F)F)cc(C(F)(F)F)c2)CC(=O)N(c2c(C)cccc2C)C1 (centres undefined)
2,≥ 7.52,CCc1cccc(C)c1N1CC(C(=O)Nc2cc(C(F)(F)F)cc(C(F)(F)F)c2)CC1=O (centres undefined)
3,6.52 to 7.52,Cc1ccccc1N1CC(C(=O)Nc2cc(C3CC3)cc(C(F)(F)F)c2)(C(C)C)CC1=O (centres undefined)
4,5.22 to 6.52,Cc1cccc(C)c1N1CC(C(=O)Nc2cccc(C#N)c2)CC1=O (centres undefined)
5,6.52 to 7.52,Cc1cccc(C)c1N1CC(Cc2ncc[nH]2)(C(=O)Nc2cc(C(F)(F)F)cc(C(F)(F)F)c2)CC1=O (centres undefined)
6,≥ 7.52,Cc1cccc(Br)c1N1CC(C(=O)Nc2cc(C(F)(F)F)cc(C(F)(F)F)c2)(C(C)C)CC1=O (centres undefined)
7,5.22 to 6.52,Cc1cccc(C)c1N1CC(C(=O)Nc2ccc(Cl)c(C(F)(F)F)c2)CC1=O (centres undefined)
8,≥ 7.52,C=CCc1cccc(C)c1N1CC(C(=O)Nc2cc(C(F)(F)F)cc(C(F)(F)F)c2)(C(C)C)CC1=O (centres undefined)
9,5.22 to 6.52,Cc1cccc(C)c1N1CC(CN2CCCC2)(C(=O)Nc2cc(C(F)(F)F)cc(C(F)(F)F)c2)CC1=O (centres undefined)
10,6.52 to 7.52,Cc1cccc(CN2CCOCC2)c1N1CC(C(=O)Nc2cc(C(F)(F)F)cc(C(F)(F)F)c2)(C(C)C)CC1=O (centres undefined)
11,6.52 to 7.52,COc1cccc(C)c1N1CC(C(=O)Nc2cc(F)cc(F)c2)CC1=O (centres undefined)
12,6.52 to 7.52,CC[C@@]1(C(=O)Nc2cc(N(C)C)cc(C(F)(F)F)c2)CN(c2c(C)cccc2C)C(=O)[C@H]1C
13,5.22 to 6.52,CC[C@@]1(C(=O)Nc2cc(CN3CCOCC3)cc(C(F)(F)F)c2)CN(c2c(C)cccc2C)C(=O)[C@H]1C
14,5.22 to 6.52,CCC1(C(=O)Nc2cc(C(F)(F)F)cc(C(F)(F)F)c2)CC(=O)N(c2ccccc2OC)C1 (centres undefined)
15,5.22 to 6.52,CC(C)C1(C(=O)Nc2cc(C(F)(F)F)cc(C(F)(F)F)c2)CC(=O)N(c2ccccc2CN2CCOCC2)C1 (centres undefined)
16,6.52 to 7.52,COC(=O)c1cc(NC(=O)C2CC(=O)N(c3c(C)cccc3C)C2)cc(C(F)(F)F)c1 (centres undefined)
17,5.22 to 6.52,Cc1cccc(C)c1N1CC(C(=O)Nc2cc(C3CC3)cc(C(F)(F)F)c2)CC1=O (centres undefined)
18,5.22 to 6.52,Cc1cccc(CCN2CCCC2)c1N1CC(C(=O)Nc2cc(C(F)(F)F)cc(C(F)(F)F)c2)(C(C)C)CC1=O (centres undefined)

row,pIC50,Compound
1,5.22 to 6.52,Cc1cccc(C)c1N1C[C@@](CN2CCCCC2)(C(=O)Nc2cc(C(F)(F)F)cc(C(F)(F)F)c2)[C@H](C)C1=O
2,6.52 to 7.52,CC(C)C1(C(=O)Nc2cc(C(F)(F)F)cc(C(F)(F)F)c2)CC(=O)N(c2ccccc2C2CC2)C1 (centres undefined)
3,6.52 to 7.52,COCc1cccc(C)c1N1C[C@](C(=O)Nc2cc(C(F)(F)F)cc(C(F)(F)F)c2)(C(C)C)CC1=O
4,≥ 7.52,Cc1cccc(C)c1N1C[C@](C(=O)Nc2cc(C3CC3)cc(C(F)(F)F)c2)(C(C)C)CC1=O
5,6.52 to 7.52,C=Cc1ccccc1N1CC(C(=O)Nc2cc(C(F)(F)F)cc(C(F)(F)F)c2)(C(C)C)CC1=O (centres undefined)
6,6.52 to 7.52,Cc1cccc(C)c1N1CC(CN(C)C)(C(=O)Nc2cc(C(F)(F)F)cc(C(F)(F)F)c2)CC1=O (centres undefined)
7,≥ 7.52,Cc1cccc(C)c1N1C[C@@](CN(C)C)(C(=O)Nc2cc(C(F)(F)F)cc(C(F)(F)F)c2)[C@H](C)C1=O
8,≥ 7.52,Cc1cccc(C)c1N1CC(C(=O)Nc2cc(C(F)(F)F)cc(C(F)(F)F)c2)CC1=O (centres undefined)
9,6.52 to 7.52,Cc1cccc(F)c1N1CC(C(=O)Nc2cc(C(F)(F)F)cc(C(F)(F)F)c2)(C(C)C)CC1=O (centres undefined)
10,6.52 to 7.52,CC(C)C1(C(=O)Nc2cc(C3CC3)cc(C(F)(F)F)c2)CC(=O)N(c2ccccc2Cl)C1 (centres undefined)
11,6.52 to 7.52,C/C=C/c1ccccc1N1CC(C(=O)Nc2cc(C(F)(F)F)cc(C(F)(F)F)c2)(C(C)C)CC1=O (centres undefined)
12,6.52 to 7.52,Cc1cccc(C)c1N1CC(C(=O)Nc2cc(Cl)cc(Cl)c2)CC1=O (centres undefined)
13,6.52 to 7.52,Cc1cccc(C)c1N1C[C@](C(=O)Nc2cc(NC(C)C)cc(C(F)(F)F)c2)(C(C)C)[C@H](C)C1=O
14,6.52 to 7.52,CC[C@@]1(C(=O)Nc2cc(F)cc(C(F)(F)F)c2)CN(c2c(C)cccc2C)C(=O)[C@H]1C
15,6.52 to 7.52,Cc1cccc(CO)c1N1CC(C(=O)Nc2cc(C(F)(F)F)cc(C(F)(F)F)c2)(C(C)C)CC1=O (centres undefined)
16,≥ 7.52,Cc1cccc(C)c1N1C[C@](C(=O)Nc2cc(C#N)cc(C(F)(F)F)c2)(C(C)C)CC1=O
17,≥ 7.52,CC[C@@]1(C(=O)Nc2cc(CN3CCCC3C(F)(F)F)cc(C(F)(F)F)c2)CN(c2c(C)cccc2C)C(=O)[C@H]1C (some centres undefined)
18,6.52 to 7.52,C=CCc1ccccc1N1CC(C(=O)Nc2cc(C(F)(F)F)cc(C(F)(F)F)c2)(C(C)C)CC1=O (centres undefined)
